Values of other authors as cited in patent US11478494B2, “Methods and substances for prevention and treatment of neurodegenerative diseases” (Locus IP Company, LLC, priority 2017, dated 2022).
*1 amine or outer side, *2 acyl side, *3 side chain or, on linkers, in order; H or OH if unused. Where a SMILES comes first, the peptide text is derived from it. Bridges are numbered along the chain shown (N, C = ends). [ ]: non-standard residue; d: D form. X1 = CC(C)CCCCCCCCC[C@H](CC(=O)[*:1])O[*:2]

Columns and labels:
[1] = oral administration
[2] = surfactin administration

| Compound | oral dose administered without toxicity [1] | concentration without any significant toxic effects [2] [µM] |
| --- | --- | --- |
| sophorolipid [SLP] | ≤ 5 grams/kg of body weight | – |
| CC(C)CCCCCCCCC[C@@H]1CC(=O)N[C@@H](CCC(=O)O)C(=O)N[C@@H](CC(C)C)C(=O)N[C@H](CC(C)C)C(=O)N[C@@H](C(C)C)C(=O)N[C@@H](CC(=O)O)C(=O)N[C@H](CC(C)C)C(=O)N[C@@H](CC(C)C)C(=O)O1 [surfactin] (EL[dL]VD[dL]L; linker N-C via X1) | – | ≤ 25 |
